The record followed here is ChEMBL document CHEMBL1201862, “PubChem BioAssay data set” (2004).

Activity calls are given as the source filed them.

Holding throughout (assay type): functional
The target in assay [1] is T1, Sentrin-specific protease 7 (Homo sapiens, UniProt Q9BQF6).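 Further: Luminescence-based dose-response confirmation of ultra-high-throughput screening hits, measuring inhibition of SENP7.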
T1 sequence (Q9BQF6 whole entry): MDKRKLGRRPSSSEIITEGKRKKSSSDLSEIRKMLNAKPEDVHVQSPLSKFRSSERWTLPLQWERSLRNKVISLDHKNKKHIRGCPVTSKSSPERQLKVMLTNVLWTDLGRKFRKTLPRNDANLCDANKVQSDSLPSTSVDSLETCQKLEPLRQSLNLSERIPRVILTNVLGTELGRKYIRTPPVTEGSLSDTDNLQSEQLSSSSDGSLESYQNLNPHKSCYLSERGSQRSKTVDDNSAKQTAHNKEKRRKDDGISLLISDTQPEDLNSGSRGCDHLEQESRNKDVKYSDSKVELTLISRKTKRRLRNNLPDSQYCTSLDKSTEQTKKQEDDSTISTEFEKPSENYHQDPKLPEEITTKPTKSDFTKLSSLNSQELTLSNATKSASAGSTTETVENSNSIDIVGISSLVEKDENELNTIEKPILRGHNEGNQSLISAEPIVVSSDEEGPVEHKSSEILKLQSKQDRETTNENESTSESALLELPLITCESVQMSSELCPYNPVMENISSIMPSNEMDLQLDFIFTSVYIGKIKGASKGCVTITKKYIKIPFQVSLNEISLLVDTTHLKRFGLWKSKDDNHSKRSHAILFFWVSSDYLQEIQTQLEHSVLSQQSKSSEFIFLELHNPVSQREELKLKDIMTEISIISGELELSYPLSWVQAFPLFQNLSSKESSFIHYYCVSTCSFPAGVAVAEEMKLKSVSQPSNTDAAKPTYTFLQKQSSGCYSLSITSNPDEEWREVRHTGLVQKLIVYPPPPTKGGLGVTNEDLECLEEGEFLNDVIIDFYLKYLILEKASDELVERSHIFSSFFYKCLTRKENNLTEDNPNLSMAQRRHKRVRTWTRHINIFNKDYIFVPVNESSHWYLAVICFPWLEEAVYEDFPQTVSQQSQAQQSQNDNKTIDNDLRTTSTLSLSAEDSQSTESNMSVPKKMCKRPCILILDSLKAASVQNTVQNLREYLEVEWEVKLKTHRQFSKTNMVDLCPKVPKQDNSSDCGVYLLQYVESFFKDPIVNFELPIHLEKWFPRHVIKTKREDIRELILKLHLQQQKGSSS

A further assay concerns the target T2, Protein RecA (Mycobacterium tuberculosis, UniProt P9WHJ3).
T2 sequence (P9WHJ3 whole entry): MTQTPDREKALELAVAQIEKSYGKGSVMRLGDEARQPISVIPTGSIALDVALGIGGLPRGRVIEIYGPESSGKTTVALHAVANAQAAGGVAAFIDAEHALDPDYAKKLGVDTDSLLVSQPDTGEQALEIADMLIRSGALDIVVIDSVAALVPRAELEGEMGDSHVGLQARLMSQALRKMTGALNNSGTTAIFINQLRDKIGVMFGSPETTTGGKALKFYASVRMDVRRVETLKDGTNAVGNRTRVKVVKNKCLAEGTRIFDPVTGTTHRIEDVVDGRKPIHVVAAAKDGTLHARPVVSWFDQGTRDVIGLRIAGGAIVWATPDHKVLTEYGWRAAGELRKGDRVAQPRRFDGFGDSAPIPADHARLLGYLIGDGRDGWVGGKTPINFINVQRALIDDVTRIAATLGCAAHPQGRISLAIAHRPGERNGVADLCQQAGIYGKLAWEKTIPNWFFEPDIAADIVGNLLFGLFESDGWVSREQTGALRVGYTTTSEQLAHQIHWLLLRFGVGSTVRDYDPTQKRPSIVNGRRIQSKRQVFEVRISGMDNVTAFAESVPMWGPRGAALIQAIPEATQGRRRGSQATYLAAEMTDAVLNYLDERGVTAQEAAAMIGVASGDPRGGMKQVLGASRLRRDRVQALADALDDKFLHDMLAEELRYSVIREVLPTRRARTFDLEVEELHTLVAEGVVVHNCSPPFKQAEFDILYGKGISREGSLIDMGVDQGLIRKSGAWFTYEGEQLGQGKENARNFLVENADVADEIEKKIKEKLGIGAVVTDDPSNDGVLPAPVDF
The assay can be described thus: Fluorescence Cell-Free Homogeneous Dose Retest to Identify Inhibitors of RecA-Intein Splicing Activity. [Related pubchem assays (depositor defined):AID2097, AID2223, AID489010, AID492950].

The target of assay [2] is Mitogen-activated protein kinase kinase kinase kinase 2 (Homo sapiens, UniProt Q12851).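 Further: measured as one member of a kinome-wide kinase panel, with MAP4K2 as the panel entry.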
Sequence of Mitogen-activated protein kinase kinase kinase kinase 2 (Q12851 whole entry): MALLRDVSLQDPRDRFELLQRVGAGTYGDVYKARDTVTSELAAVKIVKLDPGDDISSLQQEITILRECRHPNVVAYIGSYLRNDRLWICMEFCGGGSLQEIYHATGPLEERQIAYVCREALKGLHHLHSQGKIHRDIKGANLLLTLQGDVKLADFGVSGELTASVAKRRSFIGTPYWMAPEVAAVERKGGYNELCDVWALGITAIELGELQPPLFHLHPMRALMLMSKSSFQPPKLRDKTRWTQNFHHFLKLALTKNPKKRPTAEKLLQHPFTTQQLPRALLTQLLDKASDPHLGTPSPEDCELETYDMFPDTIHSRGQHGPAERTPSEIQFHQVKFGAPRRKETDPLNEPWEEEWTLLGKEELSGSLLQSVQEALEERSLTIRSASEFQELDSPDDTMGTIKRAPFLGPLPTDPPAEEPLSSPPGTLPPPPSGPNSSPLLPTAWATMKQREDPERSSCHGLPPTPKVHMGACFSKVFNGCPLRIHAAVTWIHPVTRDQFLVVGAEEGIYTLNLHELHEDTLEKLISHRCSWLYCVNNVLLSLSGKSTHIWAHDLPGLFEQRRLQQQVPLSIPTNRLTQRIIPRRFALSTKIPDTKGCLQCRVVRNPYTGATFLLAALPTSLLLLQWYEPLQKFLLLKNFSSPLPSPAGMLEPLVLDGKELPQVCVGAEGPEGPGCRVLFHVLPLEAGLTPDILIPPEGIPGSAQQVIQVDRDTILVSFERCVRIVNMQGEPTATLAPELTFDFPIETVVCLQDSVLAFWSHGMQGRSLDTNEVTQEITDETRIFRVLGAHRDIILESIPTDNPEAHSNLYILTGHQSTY
The target in assay [3] is Tyrosine-protein kinase ABL1 (Homo sapiens, UniProt P00519).
The target in assay [4] is cGMP-dependent protein kinase 1 (Homo sapiens, UniProt Q13976).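 Further: value from a kinome panel screen with PRKG1 as the panel member.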
Assay [5] concerns the target Rho-associated protein kinase 2 (Homo sapiens, UniProt O75116).
Assay [6] concerns the target Ribosomal protein S6 kinase alpha-5 (Homo sapiens, UniProt O75582).
Assay [7] concerns the target Tyrosine-protein kinase ITK/TSK (Homo sapiens, UniProt Q08881).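 Further: affinity for ITK measured as one member of a broad kinase panel profiling binding across the kinome.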
The target in assay [8] is Homeodomain-interacting protein kinase 2 (Homo sapiens, UniProt Q9H2X6).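 Further: measured within a kinome-wide kinase profiling panel, HIPK2 being one panel member.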
Another assay concerns the target Insulin receptor (Homo sapiens, UniProt P06213).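 Further: insulin receptor kinase tested as one member of a kinome-wide kinase panel.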
In assay [9] the target is Serine/threonine-protein kinase pim-3 (Homo sapiens, UniProt Q86V86).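 Further: value obtained as one member of a broad kinase panel profiling effort.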
The target in assay [10] is Platelet-derived growth factor receptor beta (Homo sapiens, UniProt P09619).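 Further: value comes from a kinome panel, with PDGFRB tested as one panel member.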
The target of assay [11] is Casein kinase I isoform delta (Homo sapiens, UniProt P48730).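 Further: measured as one member (CSNK1D) of a kinome panel.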
Assay [12] concerns the target Calcium/calmodulin-dependent protein kinase type II subunit beta (Homo sapiens, UniProt Q13554).
Assay [13] addresses Serine/threonine-protein kinase Nek4 (Homo sapiens, UniProt P51957).
Assay [14] deals with Protein kinase C iota type (Homo sapiens, UniProt P41743).
The target of assay [15] is Mitogen-activated protein kinase kinase kinase kinase 5 (Homo sapiens, UniProt Q9Y4K4).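 Further: measured as one member of a kinome-spanning kinase panel.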
Sequence of Mitogen-activated protein kinase kinase kinase kinase 5 (Q9Y4K4 whole entry): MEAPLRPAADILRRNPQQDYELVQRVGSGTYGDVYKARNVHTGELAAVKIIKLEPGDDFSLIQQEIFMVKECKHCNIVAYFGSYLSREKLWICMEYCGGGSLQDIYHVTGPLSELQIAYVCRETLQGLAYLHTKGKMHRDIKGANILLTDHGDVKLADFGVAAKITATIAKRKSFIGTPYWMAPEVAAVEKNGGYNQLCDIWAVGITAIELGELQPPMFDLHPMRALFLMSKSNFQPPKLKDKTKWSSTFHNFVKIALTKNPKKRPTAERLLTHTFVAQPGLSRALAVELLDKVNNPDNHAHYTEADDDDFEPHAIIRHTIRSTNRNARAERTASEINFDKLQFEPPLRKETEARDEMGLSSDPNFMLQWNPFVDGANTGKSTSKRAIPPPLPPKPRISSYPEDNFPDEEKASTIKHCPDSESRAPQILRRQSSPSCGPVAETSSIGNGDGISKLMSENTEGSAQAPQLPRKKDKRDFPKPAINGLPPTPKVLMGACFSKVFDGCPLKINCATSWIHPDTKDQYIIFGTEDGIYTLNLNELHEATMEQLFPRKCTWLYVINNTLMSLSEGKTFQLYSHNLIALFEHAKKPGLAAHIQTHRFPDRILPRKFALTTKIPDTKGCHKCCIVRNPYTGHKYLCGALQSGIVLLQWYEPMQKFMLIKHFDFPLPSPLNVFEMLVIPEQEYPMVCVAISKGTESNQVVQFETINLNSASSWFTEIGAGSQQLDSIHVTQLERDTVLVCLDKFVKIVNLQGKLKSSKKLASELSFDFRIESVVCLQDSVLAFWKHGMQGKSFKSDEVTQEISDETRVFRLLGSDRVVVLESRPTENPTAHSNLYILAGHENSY
For assay [16], the target named is Receptor tyrosine-protein kinase erbB-4 (Homo sapiens, UniProt Q15303).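 Further: ERBB4 member of a kinome-wide kinase profiling panel.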

Sequence of Calcium/calmodulin-dependent protein kinase type II subunit beta (Q13554 whole entry): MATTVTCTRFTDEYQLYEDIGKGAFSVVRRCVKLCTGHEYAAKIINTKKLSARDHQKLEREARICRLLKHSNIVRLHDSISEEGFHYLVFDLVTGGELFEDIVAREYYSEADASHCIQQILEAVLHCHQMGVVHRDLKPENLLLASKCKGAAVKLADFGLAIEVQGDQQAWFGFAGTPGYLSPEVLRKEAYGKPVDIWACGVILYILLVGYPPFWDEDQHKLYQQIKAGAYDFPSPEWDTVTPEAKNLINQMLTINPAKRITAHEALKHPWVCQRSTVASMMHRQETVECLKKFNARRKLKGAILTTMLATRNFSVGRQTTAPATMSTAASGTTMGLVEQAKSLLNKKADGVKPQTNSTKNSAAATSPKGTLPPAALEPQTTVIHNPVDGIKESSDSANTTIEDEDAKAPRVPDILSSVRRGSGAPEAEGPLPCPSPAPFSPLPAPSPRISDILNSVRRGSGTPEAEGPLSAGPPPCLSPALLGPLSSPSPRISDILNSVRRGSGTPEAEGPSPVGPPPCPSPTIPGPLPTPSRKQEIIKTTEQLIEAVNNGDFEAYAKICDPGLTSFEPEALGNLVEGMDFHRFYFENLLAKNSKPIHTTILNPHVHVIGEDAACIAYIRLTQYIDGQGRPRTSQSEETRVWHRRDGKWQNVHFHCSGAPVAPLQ
Sequence of Rho-associated protein kinase 2 (O75116 whole entry): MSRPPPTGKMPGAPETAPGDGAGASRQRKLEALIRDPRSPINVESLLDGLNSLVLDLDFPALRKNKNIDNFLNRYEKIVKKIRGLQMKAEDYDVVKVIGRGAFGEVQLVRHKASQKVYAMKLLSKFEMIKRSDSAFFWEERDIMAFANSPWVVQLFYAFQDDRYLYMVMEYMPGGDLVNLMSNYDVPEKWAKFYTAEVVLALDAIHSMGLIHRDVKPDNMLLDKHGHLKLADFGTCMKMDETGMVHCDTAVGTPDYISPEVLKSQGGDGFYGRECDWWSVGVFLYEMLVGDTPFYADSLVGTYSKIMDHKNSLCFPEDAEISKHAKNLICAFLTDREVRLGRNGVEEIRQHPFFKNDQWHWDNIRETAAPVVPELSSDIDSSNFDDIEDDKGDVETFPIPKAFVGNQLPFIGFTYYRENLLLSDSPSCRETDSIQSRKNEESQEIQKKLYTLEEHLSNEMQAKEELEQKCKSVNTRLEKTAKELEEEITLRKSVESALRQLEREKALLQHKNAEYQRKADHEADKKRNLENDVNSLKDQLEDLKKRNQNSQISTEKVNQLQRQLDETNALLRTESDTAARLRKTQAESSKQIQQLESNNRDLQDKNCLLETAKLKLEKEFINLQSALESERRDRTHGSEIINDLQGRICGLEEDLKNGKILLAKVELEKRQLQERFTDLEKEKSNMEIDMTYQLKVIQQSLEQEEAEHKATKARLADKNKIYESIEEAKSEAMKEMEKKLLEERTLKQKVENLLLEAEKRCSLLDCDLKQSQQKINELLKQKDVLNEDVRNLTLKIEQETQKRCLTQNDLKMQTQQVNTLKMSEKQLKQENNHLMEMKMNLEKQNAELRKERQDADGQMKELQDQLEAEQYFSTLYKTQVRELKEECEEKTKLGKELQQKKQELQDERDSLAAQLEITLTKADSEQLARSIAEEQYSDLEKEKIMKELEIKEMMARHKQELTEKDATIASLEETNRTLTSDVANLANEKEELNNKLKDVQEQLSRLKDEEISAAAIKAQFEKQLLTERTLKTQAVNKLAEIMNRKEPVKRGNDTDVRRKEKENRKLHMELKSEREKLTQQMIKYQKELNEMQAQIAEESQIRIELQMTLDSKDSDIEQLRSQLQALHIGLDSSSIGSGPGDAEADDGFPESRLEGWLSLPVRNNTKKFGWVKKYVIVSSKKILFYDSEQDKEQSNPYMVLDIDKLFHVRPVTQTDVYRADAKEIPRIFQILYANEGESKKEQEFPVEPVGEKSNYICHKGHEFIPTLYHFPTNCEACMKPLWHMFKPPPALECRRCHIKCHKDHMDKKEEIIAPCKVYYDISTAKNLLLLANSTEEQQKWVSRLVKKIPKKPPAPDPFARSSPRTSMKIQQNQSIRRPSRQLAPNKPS
Sequence of Ribosomal protein S6 kinase alpha-5 (O75582 whole entry): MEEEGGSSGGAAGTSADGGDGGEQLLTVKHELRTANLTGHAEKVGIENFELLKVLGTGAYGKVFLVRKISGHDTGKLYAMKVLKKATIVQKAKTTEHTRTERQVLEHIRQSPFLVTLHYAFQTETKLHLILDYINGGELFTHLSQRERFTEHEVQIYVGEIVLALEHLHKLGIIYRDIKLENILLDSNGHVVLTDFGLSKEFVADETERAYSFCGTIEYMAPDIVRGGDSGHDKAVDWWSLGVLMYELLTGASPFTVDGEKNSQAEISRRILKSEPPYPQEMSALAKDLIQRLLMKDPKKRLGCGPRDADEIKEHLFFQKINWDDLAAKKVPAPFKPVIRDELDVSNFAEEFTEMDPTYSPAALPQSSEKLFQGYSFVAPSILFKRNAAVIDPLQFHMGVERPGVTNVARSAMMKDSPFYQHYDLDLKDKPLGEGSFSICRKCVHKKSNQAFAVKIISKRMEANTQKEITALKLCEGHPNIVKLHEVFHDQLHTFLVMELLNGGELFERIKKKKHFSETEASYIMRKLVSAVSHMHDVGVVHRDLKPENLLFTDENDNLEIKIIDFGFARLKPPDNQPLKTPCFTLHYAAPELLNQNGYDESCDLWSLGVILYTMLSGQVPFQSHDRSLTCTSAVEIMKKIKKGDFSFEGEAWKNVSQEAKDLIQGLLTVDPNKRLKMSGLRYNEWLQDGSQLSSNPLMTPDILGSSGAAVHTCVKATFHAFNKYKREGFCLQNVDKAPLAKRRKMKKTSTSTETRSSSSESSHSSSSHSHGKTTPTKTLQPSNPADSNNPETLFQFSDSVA

The term IC50 denotes the point on the concentration scale where inhibition reaches its midpoint. As a reminder, the EC50 is the midpoint of the concentration-response curve. With `Cc1ccc(NC2=C(NCCO)C(=O)c3ccccc3C2=O)cc1`, in assay [1], the 50% inhibitory concentration (IC50) is 11.6 µM (active). On Protein RecA, the EC50 is 11.7 µM (active).

As for `CC(/C=C1\SC(=S)N(NS(=O)(=O)c2ccc(C)cc2)C1=O)=C\c1ccccc1`, the IC50 in assay [1] is 43.9 µM (active).

As usually defined, the Ki is a measure of affinity in units of concentration, obtained from inhibition or displacement. For `COc1ccc(C2=NNc3cccc4c(OC)ccc2c34)cc1OC`, the inhibition constant (Ki) was 2 µM (active) in assay [2] and > 2.51 µM (inactive) in [3].

A word on the pKi: it is the negative decadic logarithm of the Ki, by convention in mol/L. As for `CN1CCC(c2c(O)cc(O)c3c(=O)cc(-c4ccccc4Cl)oc23)C(O)C1` (stereo unspecified), the Ki in assay [4] was > 2 µM (inactive); in assay [5], > 6.31 µM (inactive); in assay [6], > 2 µM (inactive); in assay [7], > 1.58 µM (inactive); in assay [8], > 3.98 µM (inactive); on Insulin receptor, > 5.01 µM (inactive). In addition, the inhibitory constant (Ki) in [9] is 1.26 µM (active); in [2] it was 1 µM (active); in [10] it was > 2 µM (inactive); in assay [11], > 7.94 µM (inactive); in assay [12], 5.01 µM (active); in [13], > 6.31 µM (inactive). The values for the Ki in assay [14], in assay [15] and in assay [16] were > 5.01 µM (inactive), 1 µM (active) and > 3.98 µM (inactive), respectively. For the same compound, the pKi in assay [12] stood at 5.3.
